Consider one compound from patent publication US5482954A, “Signal transduction inhibitor triazole and diazole compounds” (priority 1994, dated 1996).

Like-named read-outs stand apart in the source and are kept apart here.

For data set [1], the system named is A2058 human melanoma tumors. Kind of data set: Oral treatment of subcutaneous xenografts. Format: in vivo, nude mice. As for the experimental part:
This example illustrates the antitumor effect of compound 1 when administered orally to mice, following either subcutaneous inoculation of the mice with A2058 cells at two flank sites, intraperitoneal injection of OVCAR3 cells, or tail vein inoculation with 5R cells.
The antitumor effect of compound 1 was tested on groups of 10 nude mice which had been inoculated subcutaneously at two flank sites with 10^6 A2058 cells. Measureable tumors were observed within 14 days. On day 3 following tumor introduction, compound 1, diluted in PEG-400, or PEG-400 vehicle alone, was administered by gavage. Animals were monitored daily for toxicity, behavior, and extent of tumor. Weights and bidirectional measurements of A2058 tumor masses were determined three times per week.

The subject of data set [2] is 5R cells. Nature of the data set: Oral treatment, prevention of experimental metastasis. Format: in vivo, nude mice. Here is the method:
Finally, compound 1 was tested for efficacy in prevention of the formation and growth of experimental metastases. Oral administration of compound 1 or PEG-400 vehicle to nude mice was carried out for 5 days. On day 6, untreated 5R cells (10^4) were introduced into the animals by tail vein inoculation. The animals were then randomized into four groups. Two groups of animals which had received only vehicle were subsequently treated with either vehicle (PEG/PEG) or 1 (PEG/1). The other two groups which had been treated with 1 were similarly treated post-inoculation with either vehicle (1/PEG) or 1 (1/1). Treatments were continued for 10 d, after which the lungs were removed and the pulmonary metastases were counted. Histologic confirmation of the fibrosarcoma due to the 5R cells was obtained. […] No toxicity was noted during treatment or at necropsy.

Data set [3] deals with 5R cells. Kind of data set: Cell adhesion to tissue culture plastic. Format: cell-based, rat. The settings on record: 0.03-10 μg/mL, 2 to 48 hr preincubation. Here is the method:
An adhesion assay was developed using tissue culture plastic petri dishes as the substrate. Aliquots of cells treated similarly to those in the cell motility assay were plated in triplicate onto the dishes and incubated for 90 rain at 37° C. Cells which were either poorly adherent or nonadherent were gently washed off with PBS. The remaining cells were stained with Diff Quik™ (from Baxter Scientific Products, McGaw Park. Ill., USA). Adherence was quantitated using laser densitometry and values were calculated as a percentage of the control adherence.
(§1) Cells were preincubated with compound 1 (0.03-10 μg/mL) for periods of 2 to 48 hr prior to the adhesion assay. In addition, compound 1 remained present during the assay. […] Maximal inhibition of adhesion was observed following overnight exposure of the cells to compound 1.

The test system of data set [4] is OVCAR3 cells. Kind of data set: Laminin-stimulated cell motility. The format is cell-based, human. The settings on record: 1 μg/mL, 18 hr preincubation; laminin 100 μg/mL.
The next data set deals with A2058 melanoma cells. Nature of the data set: Reversibility of inhibition of tumor cell motility. The conditions noted are these: for activity at 1 µg/mL / activity at 5 µg/mL: Homo sapiens, read-out: Motility (% of control). Format: cell-based, human. As for the experimental part: The cell motility assay has been described. See, Stracke et al., Biochem. Biophys. Res. Comm., 146:339-345 (1987). Cells from the A2058 human melanoma line which was maintained in subconfluent culture were harvested with trypsin-EDTA, and were allowed to recover for 1 hr at room temperature. Cells from the 5R H-ras transformed (diploid) rat embryo fibroblast line were harvested with 2 mM EDTA in PBS without divalent cations. Cells were resuspended in serum-free media containing 0.1% BSA. This DMEM/0.1% BSA was used as the control for all subsequent assays. The assays were performed in triplicate using a 48-well chemotaxis chamber with 8μ Nucleopore, type IV collagen-coated filters. The chambers were incubated at 37° C. for 4 hr, stained and placed onto glass slides with the original cell side up so that the cell pellet could be wiped from the surface. Cells that had migrated through the pores were trapped between glass and membrane and could be quantitated by laser densitometry.
Reversibility of cell motility which had been inhibited by compound 1 was determined by removing the compound from the incubation media. Thus, A2058 melanoma cells were cultured for 24 hr in standard media (DMEM/10% FCS), washed twice with saline, and cultured with DMEM/10% FCS with (+) or without (-) compound 1 for 24 hr. Cells were then washed and the treatments were reversed. The resulting cells are classified as "treated" (±, run as a control to test cell response following the incubation and washing steps), "washout" (±, run to evaluate reversibility), and "control". Control cells were washed and fed with standard media alone at each change point. Table E provides the results expressed as a percent of control cell motility at two concentrations of compound 1.

The next data set has as its system A2058 or 5R cells. Nature of the data set: Cell spreading. The format is cell-based. Here is the method: as §1
The subject of another data set is A2058 cells. Nature of the data set: Colony formation (soft agar). The format is cell-based, human. Here is the method: Colony formation: Compound 1 was evaluated at three concentrations for inhibition of colony formation in both the A2058 and OVCAR3 cell lines. Colony number was determined in triplicate and compared to the vehicle control run on each 24 well plate to provide a percent. Colonies greater than 60 cells were counted at 100× under phase contrast. […] In a second study, selected compounds were evaluated for their effect on density-independent growth of the A2058 cell line in soft agar. Percent inhibition was determined over triplicate experiments involving three log molar concentrations of the test compound.

Data set [5] deals with SKBR human breast cancer cells. Kind of data set: AMF-stimulated cell motility. Format: cell-based. The settings on record: overnight exposure; data not shown.
For a further data set, the system named is CHOm5 cells. Nature of the data set: Calcium ionophore A23187-stimulated 45Ca2+ influx. The format is cell-based, Chinese hamster. The settings on record: Cricetulus griseus; FIG. 13, A23187. Here is the method:
Calcium influx was determined using two methods. The first method involved the use of ^45 Ca^2+, while the second method utilized a fluorescent intracellular calcium chelator, Fura-2. The method using Fura-2 is semi-quantitative and is preferred for kinetic analysis and screening whereas the ^45 Ca^2+ method is quantitative.
CHOm5 cells in monolayer culture were washed free of serum-containing media and incubated with either carbachol or the calcium ionophore A23187 (from Molecular Probes, Eugene, Oreg., USA) in the presence of ^45 Ca^2+ and defined buffer (E2 medium with 0.1 mM MgCl2 and 1.0 mM CaCl2). After incubation for 5 min, the radioactive buffer was rapidly and repeatedly washed off with media containing LaCl3, a competitor of calcium efflux. The cell monolayer was solubilized and the calcium uptake was determined by scintillation counting.

The test system of data set [6] is OVCAR3 cells. Nature of the data set: Oral treatment of intraperitoneal xenografts. Format: in vivo, nude mice.

As a reminder, the IC50 is the concentration that gives 50% inhibition. With `NC(=O)c1nnn(Cc2cc(Cl)c(C(=O)c3ccc(Cl)cc3)c(Cl)c2)c1N` [Compound 1], the gross toxicity result in data set [1] (35 days of administration, and at necropsy) is “No gross toxicity”. For the same compound, the tumor necrosis entry in [1] (histologic evaluation of necropsy specimens) is “Marked necrosis”. Besides, in data set [1] (oral gavage from day 3), the tumor growth entry is reported as “Significant growth arrest” and the tumor incidence result was “marked delay in tumor incidence”. For the same compound, in the data set on 5R cells [2] (during treatment or at necropsy), the toxicity entry is recorded as “No toxicity”. For the same compound, in the data set on 5R cells [2] (given prior to tumor cell injection), the metastatic colonization entry is given as “prevented metastatic colonization as effectively as when 1 was administered only after tumor cell inoculation or when given continuously”. The “number of pulmonary metastases” value in the data set on 5R cells [2] (treatment prior to, post, or prior to and post inoculation) is given as “statistically significantly inhibited”. The “inhibition of cell adhesion” value in the data set with 5R cells [3] is listed as “dose-dependent inhibition of cell adhesion”. The “inhibition of spontaneous and laminin-stimulated motility” value with OVCAR3 cells [4] is “inhibited both spontaneous motility”. In addition, in the data set with A2058 melanoma cells (A2058, 1 μg/mL (+/-)), the activity at 1 µg/mL stood at 97%. The activity at 1 µg/mL in the data set with A2058 melanoma cells (A2058, 1 μg/mL (-/+)) stood at 59%. Besides, the activity at 5 µg/mL in the data set on A2058 melanoma cells (A2058, 5 μg/mL (+/-)) amounted to 94%. In the data set with A2058 melanoma cells (A2058, 5 μg/mL (-/+)), the activity at 5 µg/mL is 27%. In the data set on A2058 melanoma cells (removal of the compound from the culture medium), the “reversibility of motility inhibition” value is “could be reversed by removal of the compound from the culture medium”. Further, the cell spreading result in the data set on A2058 or 5R cells is given as “not markedly decreased”. Moreover, the “COLONY FORMATION (% OF CONTROL)” value in the data set with A2058 cells (Table H, soft agar) is reported as 11.1 ± 5 % OF CONTROL. The “Colony Formation (% of Control)” value with A2058 cells (Table K) is 11.1 ± 5 % of Control. The “inhibition of colony formation” value in the data set with A2058 cells (concentrations as low as 0.2 μM) is reported as “significant inhibitory effects”. Besides, the “motile response to AMF” value in data set [5] was “inhibited”. In addition, in the data set with CHOm5 cells, the IC50 was determined as 359 ± 11 nM. Besides, in the data set on OVCAR3 cells [6] (100 mg/kg daily oral), the “time to development of ascites” value is “Statistically significant differences”; the “tumor necrosis and pulmonary micrometastases (histology)” value was “induced tumor necrosis and inhibition of pulmonary micrometastases”; the “volume of ascites at necropsy” value is “Statistically significant differences”. Further, the “progression of OVCAR3 xenografts” value in the data set on OVCAR3 cells [6] (FIG. 16B, 100 mg/kg by gavage) was “inhibits progression of OVCAR3 xenografts”.
